Measurements published in patent US9402842B2, “Synthesis and use of dual tyrosyl-DNA phosphodiesterase I (Tdp1)—topoisomerase I (Top1) inhibitors” (Purdue Research Foundation, priority 2012, dated 2016).

Assays:
human recombinant Top1 = human recombinant Top1 (Homo sapiens (Human), UniProt P11387); experiment: Topoisomerase I-mediated DNA cleavage reactions; conditions: for Top1, compound-induced DNA cleavage due to Top1 inhibition: semiquantitative scale relative to 1 μM camptothecin (90) or MJ-III-65 (91)
Protocol: Topoisomerase I-Mediated DNA Cleavage Reactions.
DNA cleavage reactions were prepared as previously reported with the exception of the DNA substrate. […] Unincorporated [^32P]dGTP was removed using mini Quick Spin DNA columns (Roche, Indianapolis, Ind.), and the eluate containing the 3′-end-labeled DNA substrate was collected. Approximately 2 nM radiolabeled DNA substrate was incubated with recombinant Top1 in 20 μL of reaction buffer [10 mM Tris-HCl (pH 7.5), 50 mM KCl, 5 mM MgCl2, 0.1 mM EDTA, and 15 μg/mL BSA] at 25° C. for 20 min in the presence of various concentrations of compounds. The reactions were terminated by adding SDS (0.5% final concentration) followed by the addition of two volumes of loading dye (80% formamide, 10 mM sodium hydroxide, 1 mM sodium EDTA, 0.1% xylene cyanol, and 0.1% bromphenol blue). Aliquots of each reaction mixture were subjected to 20% denaturing PAGE. Gels were dried and visualized by using a phosphoimager and ImageQuant software (Molecular Dynamics).
Top1 reactions were performed as recently described. […] The reactions were terminated by adding SDS (0.5% final concentration) followed by the addition of two volumes of loading dye (80% formamide, 10 mM sodium hydroxide, 1 mM sodium EDTA, 0.1% xylene cyanol, and 0.1% bromphenol blue). Reactions were subjected to 20% denaturing PAGE. Gels were dried and visualized by using a Typhoon 8600 and ImageQuant software (Molecular Dynamics).

recombinant human Tdp1 = recombinant human Tdp1 (Homo sapiens (Human), UniProt Q9NUW8); experiment: Gel-based assay measuring the inhibition of recombinant Tdp1; assay type: biochemical; conditions: for Tdp1 inhibitory activity (in words): recombinant Tdp1; for IC50: determined by duplicate, read-out: Tdp1 (semiquantitative IC50 scale)
Protocol: Tdp1 inhibitory activity was measured by the drug's ability to inhibit the hydrolysis of the phosphodiester linkage between tyrosine and the 3′-end of the DNA substrate, and to prevent the generation of an oligonucleotide with a free 3′-phosphate (N14P). Therefore, the disappearance of the gel band for N14P indicated Tdp1 inhibition.
Gel-based Assay Measuring the Inhibition of Recombinant Tdp1.
A 5′-[^32P]-labeled single-stranded DNA oligonucleotide containing a 3′-phosphotyrosine (N14Y) was generated as described by Dexheimer et al. The DNA substrate was then incubated with 5 pM recombinant Tdp1 in the absence or presence of inhibitor for 15 min at room temperature in a buffer containing 50 mM Tris HCl, pH 7.5, 80 mM KCl, 2 mM EDTA, 1 mM DTT, 40 μg/ml BSA and 0.01% Tween-20. […] Gel images were scanned using a Typhoon 8600 (GE Healthcare) and densitometric analyses were performed using the ImageQuant software (GE Healthcare).

[1] = tested on: all human cancer cell lines successfully tested; experiment: NCI screen, mean graph midpoint (MGM) for growth inhibition; assay type: cell-based; conditions: Homo sapiens, read-out: MGM (μM)

Sequence of human recombinant Top1 (P11387 whole entry): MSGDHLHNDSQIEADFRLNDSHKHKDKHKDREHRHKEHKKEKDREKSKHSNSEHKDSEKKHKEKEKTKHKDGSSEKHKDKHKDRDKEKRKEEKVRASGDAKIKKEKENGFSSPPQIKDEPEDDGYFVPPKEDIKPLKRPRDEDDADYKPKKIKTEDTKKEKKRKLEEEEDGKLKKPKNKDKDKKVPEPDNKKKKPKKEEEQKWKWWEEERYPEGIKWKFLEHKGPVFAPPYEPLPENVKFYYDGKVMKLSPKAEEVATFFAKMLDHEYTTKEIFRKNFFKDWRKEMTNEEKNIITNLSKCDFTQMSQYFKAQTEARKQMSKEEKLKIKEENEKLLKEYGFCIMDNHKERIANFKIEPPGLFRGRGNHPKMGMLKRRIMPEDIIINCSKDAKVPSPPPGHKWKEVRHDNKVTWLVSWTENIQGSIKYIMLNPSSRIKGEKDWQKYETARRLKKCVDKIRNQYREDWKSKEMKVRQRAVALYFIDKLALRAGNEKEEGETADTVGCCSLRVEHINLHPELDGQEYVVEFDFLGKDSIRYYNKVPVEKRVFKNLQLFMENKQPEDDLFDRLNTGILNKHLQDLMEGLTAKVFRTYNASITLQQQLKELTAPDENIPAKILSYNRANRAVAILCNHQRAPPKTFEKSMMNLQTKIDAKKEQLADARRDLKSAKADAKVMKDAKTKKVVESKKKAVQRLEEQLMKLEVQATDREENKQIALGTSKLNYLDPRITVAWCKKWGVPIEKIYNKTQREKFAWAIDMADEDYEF
Sequence of recombinant human Tdp1 (Q9NUW8 whole entry): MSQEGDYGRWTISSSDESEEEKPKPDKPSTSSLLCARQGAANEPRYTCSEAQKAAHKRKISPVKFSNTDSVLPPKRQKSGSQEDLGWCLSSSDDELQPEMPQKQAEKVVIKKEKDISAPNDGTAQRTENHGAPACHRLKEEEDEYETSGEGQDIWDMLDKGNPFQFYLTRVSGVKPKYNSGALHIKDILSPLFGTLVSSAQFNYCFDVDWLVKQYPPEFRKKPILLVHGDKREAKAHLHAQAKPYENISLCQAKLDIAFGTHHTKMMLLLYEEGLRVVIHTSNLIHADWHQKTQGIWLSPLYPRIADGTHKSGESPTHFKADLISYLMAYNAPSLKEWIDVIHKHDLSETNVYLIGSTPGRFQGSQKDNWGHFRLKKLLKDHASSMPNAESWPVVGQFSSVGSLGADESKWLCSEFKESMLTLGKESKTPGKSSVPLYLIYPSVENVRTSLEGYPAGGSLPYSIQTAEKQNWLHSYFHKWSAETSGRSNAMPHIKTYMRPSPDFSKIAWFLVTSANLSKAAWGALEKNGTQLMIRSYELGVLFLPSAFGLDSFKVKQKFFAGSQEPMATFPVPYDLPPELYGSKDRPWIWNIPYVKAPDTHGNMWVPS

SMILES	Top1, compound-induced DNA cleavage due to Top1 inhibition (human recombinant Top1)	other results
Cl.NCCCn1c2c(c3ccc(NC(=O)C(=O)O)cc3c1=O)C(=O)c1ccccc1-2 [Compound 32 of (B), 2-[(6-(3-Aminopropyl)-5,11-dioxo-6,11-dihydro-5H-indeno[1,2-c]isoquinolin-3-yl)amino]-2-oxoacetic Acid Hydrochloride]	+	
CCOC(=O)CNc1ccc2c3c(n(C)c(=O)c2c1)-c1ccccc1C3=O [Compound 38 of (B), Ethyl 2-[(6-Methyl-5,11-dioxo-6,11-dihydro-5H-indeno[1,2-c]isoquinolin-3-yl)amino]acetate]	0	Tdp1 inhibitory activity (in words) (recombinant human Tdp1; listed as 38): inactivity
Cl.NCCCn1c2c(c3ccc(NC(=O)CC(=O)O)cc3c1=O)C(=O)c1ccccc1-2 [Compound 33 of (B), 3-[(6-(3-Aminopropyl)-5,11-dioxo-6,11-dihydro-5H-indeno[1,2-c]isoquinolin-3-yl)amino]-3-oxopropanoic Acid Hydrochloride]	+	
Cl.NCCCn1c2c(c3ccc(NC(=O)CCCCC(=O)O)cc3c1=O)C(=O)c1ccccc1-2 [Compound 36 of (B), 6-[(6-(3-Aminopropyl)-5,11-dioxo-6,11-dihydro-5H-indeno[1,2-c]isoquinolin-3-yl)amino]-6-oxohexanoic Acid Hydrochloride]	+	
Cl.NCCCn1c2c(c3ccc(NC(=O)CCCC(=O)O)cc3c1=O)C(=O)c1ccccc1-2 [Compound 35 of (B), 5-[(6-(3-Aminopropyl)-5,11-dioxo-6,11-dihydro-5H-indeno[1,2-c]isoquinolin-3-yl)amino]-5-oxopentanoic Acid Hydrochloride]	0	
CC(C)(C)OC(=O)NCCCn1c2c(c3ccc(NC(=O)CCCCC(=O)O)cc3c1=O)C(=O)c1ccccc1-2 [Compound 31 of (B), 6-[(6-(3-((tert-Butoxycarbonyl)amino)propyl)-5,11-dioxo-6,11-dihydro-5H-indeno[1,2-c]isoquinolin-3-yl)amino]-6-oxohexanoic Acid]	(+)	
N#Cc1ccc2c3c(n(CCCN4CCOCC4)c(=O)c2c1)-c1ccccc1C3=O [Compound 73]	++	IC50 (recombinant human Tdp1): > 111 µM
COc1ccc2c(c1)-c1c(c3ccc([N+](=O)[O-])cc3c(=O)n1CCCN1CCOCC1)C2=O [Compound 53 of (B), 8-Methoxy-6-(3-morpholinopropyl)-3-nitro-5H-indeno[1,2-c]isoquinoline-5,11(6H)-dione]	++	Tdp1 inhibitory activity (in words) (recombinant human Tdp1): very weak or inactive
COC(=O)CC(=O)Nc1ccc2c3c(n(CCCNC(=O)OC(C)(C)C)c(=O)c2c1)-c1ccccc1C3=O [Compound 18 of (B), Methyl 3-[(6-(3-((tert-Butoxycarbonyl)amino)propyl)-5,11-dioxo-6,11-dihydro-5H-indeno[1,2-c]isoquinolin-3-yl)amino]-3-oxopropanoate]	0	IC50 (recombinant human Tdp1): > 111 µM
O=C1c2ccccc2-c2c1c1ccccc1c(=O)n2CCCl [Compound 30, 6-(2-Chloroethyl)-5H-indeno[1,2-c]isoquinoline-5,11(6H)-dione]		Tdp1 inhibitory activity (in words) (recombinant human Tdp1): inactive
COC(=O)CCC(=O)Nc1ccc2c3c(n(CCCN)c(=O)c2c1)-c1ccccc1C3=O [Compound 24 of (B), Methyl 4-[(6-(3-Aminopropyl)-5,11-dioxo-6,11-dihydro-5H-indeno[1,2-c]isoquinolin-3-yl)amino]-4-oxobutanoate]	(+)	
COC(=O)CCC(=O)Nc1ccc2c3c(n(C)c(=O)c2c1)-c1ccccc1C3=O [Compound 11 of (B), Methyl 4-[(6-Methyl-5,11-dioxo-6,11-dihydro-5H-indeno[1,2-c]isoquinolin-3-yl)amino]-4-oxobutanoate]	(+)	
N#Cc1ccc2c3c(n(CCCn4ccnc4)c(=O)c2c1)-c1ccccc1C3=O [Compound 72]	++	IC50 (recombinant human Tdp1): > 111 µM
COC(=O)CC(=O)Nc1ccc2c3c(n(C)c(=O)c2c1)-c1ccccc1C3=O [Compound 10 of (B), Methyl 3-[(6-Methyl-5,11-dioxo-6,11-dihydro-5H-indeno[1,2-c]isoquinolin-3-yl)amino]-3-oxopropanoate]	0	
CC(C)(C)OC(=O)NCCCn1c2c(c3ccc(NC(=O)CCC(=O)O)cc3c1=O)C(=O)c1ccccc1-2 [Compound 29 of (B), 4-[(6-(3-((tert-Butoxycarbonyl)amino)propyl)-5,11-dioxo-6,11-dihydro-5H-indeno[1,2-c]isoquinolin-3-yl)amino]-4-oxobutanoic Acid]	(+)	IC50 (recombinant human Tdp1): 37 to 111 µM
COC(=O)CC(=O)Nc1ccc2c3c(n(CCCN)c(=O)c2c1)-c1ccccc1C3=O [Compound 23 of (B), Methyl 3-[(6-(3-Aminopropyl)-5,11-dioxo-6,11-dihydro-5H-indeno[1,2-c]isoquinolin-3-yl)amino]-3-oxopropanoate]		IC50 [1]: 1.86 µM
CC(C)(C)OC(=O)NCCCn1c2c(c3ccc(NC(=O)CCCC(=O)O)cc3c1=O)C(=O)c1ccccc1-2 [Compound 30 of (B), 5-[(6-(3-((tert-Butoxycarbonyl)amino)propyl)-5,11-dioxo-6,11-dihydro-5H-indeno[1,2-c]isoquinolin-3-yl)amino]-5-oxopentanoic Acid]	0	IC50 (recombinant human Tdp1): > 111 µM
COC(=O)CCCCC(=O)Nc1ccc2c3c(n(C)c(=O)c2c1)-c1ccccc1C3=O [Compound 13 of (B), Methyl 6-[(6-Methyl-5,11-dioxo-6,11-dihydro-5H-indeno[1,2-c]isoquinolin-3-yl)amino]-6-oxohexanoate]	0	
COC(=O)CCC(=O)Nc1ccc2c3c(n(CCCNC(=O)OC(C)(C)C)c(=O)c2c1)-c1ccccc1C3=O [Compound 19 of (B), Methyl 4-[(6-(3-((tert-Butoxycarbonyl)amino)propyl)-5,11-dioxo-6,11-dihydro-5H-indeno[1,2-c]isoquinolin-3-yl)amino]-4-oxobutanoate]	0	IC50 (recombinant human Tdp1): > 111 µM
CC(C)(C)OC(=O)NCCCn1c2c(c3ccc(NCC(=O)O)cc3c1=O)C(=O)c1ccccc1-2 [Compound 42 of (B), 2-((6-(3-((tert-Butoxycarbonyl)amino)propyl)-5,11-dioxo-6,11-dihydro-5H-indeno[1,2-c]isoquinolin-3-yl)amino)acetic Acid]	0	Tdp1 inhibitory activity (in words) (recombinant human Tdp1): inactivity
Cc1ccc(S(=O)(=O)OCCCCCCCn2c3c(c4ccccc4c2=O)C(=O)c2ccccc2-3)cc1 [Compound 29, 7-(5,11-Dioxo-5H-indeno[1,2-c]isoquinolin-6(11H)-yl)heptyl-4-methyl-benzenesulfonate]		Tdp1 inhibitory activity (in words) (recombinant human Tdp1): weakly active
COc1ccc2c(c1)-c1c(c3ccc([N+](=O)[O-])cc3c(=O)n1CCCN=[N+]=[N-])C2=O [Compound 50 of (B), 6-(3-Azidopropyl)-5,6-dihydro-8-methoxy-3-nitro-5,11-dioxo-11H-indeno[1,2-c]isoquinoline]	+	Tdp1 inhibitory activity (in words) (recombinant human Tdp1): very weak or inactive
COC(=O)C(=O)Nc1ccc2c3c(n(C)c(=O)c2c1)-c1ccccc1C3=O [Compound 9 of (B), Methyl 2-[(6-Methyl-5,11-dioxo-6,11-dihydro-5H-indeno[1,2-c]isoquinolin-3-yl)amino]-2-oxoacetate]	0	
Cn1c2c(c3ccc(NCC(=O)O)cc3c1=O)C(=O)c1ccccc1-2 [Compound 41 of (B), 2-[(6-Methyl-5,11-dioxo-6,11-dihydro-5H-indeno[1,2-c]isoquinolin-3-yl)-amino]acetic Acid]	0	Tdp1 inhibitory activity (in words) (recombinant human Tdp1; listed as 41): inactivity
COC(=O)CCCC(=O)Nc1ccc2c3c(n(C)c(=O)c2c1)-c1ccccc1C3=O [Compound 12 of (B), Methyl 5-[(6-Methyl-5,11-dioxo-6,11-dihydro-5H-indeno[1,2-c]isoquinolin-3-yl)amino]-5-oxopentanoate]	+	
Cl.NCCCn1c2c(c3ccc(NC(=O)CCC(=O)O)cc3c1=O)C(=O)c1ccccc1-2 [Compound 34 of (B), 4-[(6-(3-Aminopropyl)-5,11-dioxo-6,11-dihydro-5H-indeno[1,2-c]isoquinolin-3-yl)amino]-4-oxobutanoic Acid Hydrochloride]	+	
CS(=O)(=O)NCCCCCCCn1c2c(c3ccccc3c1=O)C(=O)c1ccccc1-2 [Compound 85]	+++	Top1 inhibition (in words) (human recombinant Top1): active; suppression of Top1-mediated DNA cleavage at high drug concentration (human recombinant Top1; high concentration of 100 μM): complete suppression
COC(=O)CCCC(=O)Nc1ccc2c3c(n(CCCNC(=O)OC(C)(C)C)c(=O)c2c1)-c1ccccc1C3=O [Compound 20 of (B), Methyl 5-[(6-(3-((tert-Butoxycarbonyl)amino)propyl)-5,11-dioxo-6,11-dihydro-5H-indeno[1,2-c]isoquinolin-3-yl)amino]-5-oxopentanoate]	0	IC50 (recombinant human Tdp1): > 111 µM
COc1ccc2c(c1)-c1c(c3ccc([N+](=O)[O-])cc3c(=O)n1CCCBr)C2=O [Compound 49 of (B), 6-(3-Bromopropyl)-5,6-dihydro-8-methoxy-3-nitro-5,11-dioxo-11H-indeno[1,2-c]isoquinoline]	+++	Tdp1 inhibitory activity (in words) (recombinant human Tdp1): very weak or inactive
